Reference: US20090029366A1 (priority 2007, published 2009)

Molecular target: T1, human HCN2 channel (Homo sapiens, UniProt Q9UL51)
T1 construct: expressed in transfected cells; host or cells: HEK-293H (clones #4, #8, #11, #12)
T1 sequence (Q9UL51 1-889): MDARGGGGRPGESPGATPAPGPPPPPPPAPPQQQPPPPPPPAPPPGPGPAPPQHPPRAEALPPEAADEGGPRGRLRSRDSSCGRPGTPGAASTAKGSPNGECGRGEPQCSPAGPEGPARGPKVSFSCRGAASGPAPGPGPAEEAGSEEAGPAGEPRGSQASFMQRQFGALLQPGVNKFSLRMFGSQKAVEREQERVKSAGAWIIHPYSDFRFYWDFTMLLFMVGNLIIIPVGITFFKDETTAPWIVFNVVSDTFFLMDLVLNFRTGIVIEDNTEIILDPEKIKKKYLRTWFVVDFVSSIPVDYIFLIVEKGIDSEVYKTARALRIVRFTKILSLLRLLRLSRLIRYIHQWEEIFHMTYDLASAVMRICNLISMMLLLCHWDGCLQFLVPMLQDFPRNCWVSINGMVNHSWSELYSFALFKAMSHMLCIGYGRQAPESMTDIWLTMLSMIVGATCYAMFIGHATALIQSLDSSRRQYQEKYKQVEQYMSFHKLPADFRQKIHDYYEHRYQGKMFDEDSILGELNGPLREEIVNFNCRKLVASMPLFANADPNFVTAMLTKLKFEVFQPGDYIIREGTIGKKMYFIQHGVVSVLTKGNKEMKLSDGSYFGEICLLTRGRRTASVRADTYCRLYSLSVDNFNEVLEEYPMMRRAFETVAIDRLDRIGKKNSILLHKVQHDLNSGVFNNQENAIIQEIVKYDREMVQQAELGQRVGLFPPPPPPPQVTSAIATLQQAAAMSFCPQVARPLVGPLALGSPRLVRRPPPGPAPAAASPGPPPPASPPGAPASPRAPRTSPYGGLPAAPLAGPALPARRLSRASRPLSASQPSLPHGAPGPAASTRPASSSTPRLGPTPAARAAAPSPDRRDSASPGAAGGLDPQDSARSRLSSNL
Experiment: MPSD FLIPR 384 assay on HEK-293H clones expressing HCN2
Format: cell-based
Settings: 30 μM ZD7288
Description: HEK-293H cells were transfected with constructs encoding a human HCN2 channel essentially as described in Example 1. Cell lines were generated from a single clone according to standard protocols. The cells were incubated in HBSS/MPSD (control cells) or HBSS/MPSD and 30 μM ZD7288 (test cells) using a 384 well plate format, followed by the addition of the sodium/potassium diluent solution essentially as described in Examples 3 and 5. FIGS. 14A-14D show the effect of ZD7288 on each of the four clones expressing HCN2 channels. FIGS. 14A (clone #4), 14B (clone #8), 14C (clone #11), and 14D (clone #12) each depict the change in fluorescence over time for cells incubated in saline only (overlaid lower traces ) and for cells incubated in saline containing the HCN channel inhibitor ZD7288 (overlaid upper traces ). […] The Z-factor was between 0.56 and 0.64, and the covariance (CV) was between from 6.6 to 9.9.

CCN(c1ccccc1)c1cc(=NC)n(C)c(C)n1.Cl [ZD7288]
blockade of hyperpolarization for each of the HCN2 clones (384 well, clones #4, #8, #11, #12): effectively blocked hyperpolarization | Δfluorescence (saline + ZD7288), Mean (Clone #4, saline only −24421): −2392 RFU | Δfluorescence (saline + ZD7288), Mean (Clone #8, saline only −23600): −3006 RFU | Δfluorescence (saline + ZD7288), Mean (Clone #11, saline only −25477): −2413 RFU | Δfluorescence (saline + ZD7288), Mean (Clone #12, saline only −26367): −4834 RFU
